Results reported in patent US20140171357A1, “VANCOMYCIN DERIVATIVES” (Seachald Pharmaceuticals, Inc., priority 2011, published 2014).
Values after ≈ are worked out from the molar mass of the structure shown.

Assays:
[1] = tested on: methicillin-resistant S. aureus (MRSA, 22); assay: MIC broth microdilution, MRSA; details: MRSA (22)
[2] = tested on: VanB vancomycin-resistant E. faecalis (12); assay: MIC broth microdilution, VanB E. faecalis; details: E. faecalis, VanB (12)
S. pneumoniae (22) = assay: MIC broth microdilution, S. pneumoniae; details: S. pneumoniae (22); MHB + lysed horse blood
S. aureus ATCC 25923 = assay: Neutropenic murine thigh infection model; details: for AUCc-t (AUC difference between control and treated animals): 24 h time kill
[3] = tested on: Staphylococcus aureus (65 strains); assay: MIC broth microdilution, S. aureus all isolates; details: S. aureus (65), all resistance subsets
VanC enterococci (22) = assay: MIC broth microdilution, vanC-carrying enterococci; details: VanC enterococci (22)
[4] = tested on: methicillin-susceptible S. aureus (MSSA, 22); assay: MIC broth microdilution, MSSA; details: MSSA (22)
[5] = tested on: vancomycin-resistant S. aureus (VRSA, 6); assay: MIC broth microdilution, VRSA
[6] = tested on: VanA vancomycin-resistant E. faecium (10); assay: MIC broth microdilution, VanA E. faecium; details: E. faecium, VanA (10)
[7] = tested on: Staphylococcus epidermidis (43 strains); assay: MIC broth microdilution, S. epidermidis; details: S. epidermidis (43)
[8] = tested on: VanB vancomycin-resistant E. faecium (10); assay: MIC broth microdilution, VanB E. faecium; details: E. faecium, VanB (10)
[9] = tested on: vancomycin-susceptible E. faecalis (23); assay: MIC broth microdilution, vancomycin-susceptible E. faecalis; details: E. faecalis, vancomycin-susceptible (23)
[10] = tested on: vancomycin-susceptible E. faecium (21); assay: MIC broth microdilution, vancomycin-susceptible E. faecium; details: E. faecium, vancomycin-susceptible (21)
[11] = tested on: β-hemolytic streptococci (23); assay: MIC broth microdilution, β-hemolytic streptococci; details: for MIC 50% / MIC 90%: β-hemolytic streptococci (23), MHB + lysed horse blood
[12] = tested on: vancomycin-intermediate S. aureus (VISA, 5); assay: MIC broth microdilution, VISA
[13] = tested on: heterogeneous VISA (hVISA, 10); assay: MIC broth microdilution, hVISA
[14] = tested on: VanA vancomycin-resistant E. faecalis (11); assay: MIC broth microdilution, VanA E. faecalis; details: for MIC 50% / MIC 90%: E. faecalis, VanA (11)
[15] = 1 mg/kg single intraperitoneal dose
[16] = 4 mg/kg single intraperitoneal dose
[17] = 16 mg/kg single intraperitoneal dose

Compound	MIC 50% [1]	MIC 90% [1]	MIC 50% [2]	MIC 90% [2]	MIC 50% (S. pneumoniae (22))	MIC 90% (S. pneumoniae (22))	Max Kill (maximum decrease from initial infection level) (S. aureus ATCC 25923; [15])	AUCc-t (AUC difference between control and treated animals) (S. aureus ATCC 25923; [15])	Max Kill (maximum decrease from initial infection level) (S. aureus ATCC 25923; [16])	AUCc-t (AUC difference between control and treated animals) (S. aureus ATCC 25923; [16])	Max Kill (maximum decrease from initial infection level) (S. aureus ATCC 25923; [17])	AUCc-t (AUC difference between control and treated animals) (S. aureus ATCC 25923; [17])	MIC 50% [3]	MIC 90% [3]	MIC 50% (VanC enterococci (22))	MIC 90% (VanC enterococci (22))	MIC 50% [4]	MIC 90% [4]	MIC 50% [5]	MIC 50% [6]	other results
CNC(CC(C)C)C(=O)NC1C(=O)NC(CC(N)=O)C(=O)NC2C(=O)NC3C(=O)NC(C(=O)NC(C(=O)NCCOCCOCCN)c4cc(O)cc(O)c4-c4cc3ccc4O)C(O)c3ccc(c(Cl)c3)Oc3cc2cc(c3OC2OC(CO)C(O)C(O)C2OC2CC(C)(NCc3ccc(OCc4ccc(Cl)c(Cl)c4)cc3)C(O)C(C)O2)Oc2ccc(cc2Cl)C1O (stereo not shown) [Compound 27]	0.06 mg/L (≈ 0.0325 µM)	0.06 mg/L (≈ 0.0325 µM)	0.12 mg/L (≈ 0.0651 µM)	0.12 mg/L (≈ 0.0651 µM)	0.03 mg/L	0.06 mg/L	0.45 Log10 CFU/thigh	19.8 (Log10 CFU/thigh)/hr	−0.008 Log10 CFU/thigh	18.8 (Log10 CFU/thigh)/hr	−0.35 Log10 CFU/thigh	36.9 (Log10 CFU/thigh)/hr	0.06 mg/L (≈ 0.0325 µM)	0.25 mg/L (≈ 0.136 µM)	0.06 mg/L (≈ 0.0325 µM)	0.25 mg/L (≈ 0.136 µM)	0.06 mg/L (≈ 0.0325 µM)	0.06 mg/L (≈ 0.0325 µM)	2 mg/L (≈ 1.08 µM)	0.5 mg/L (≈ 0.271 µM)	MIC 90% [6]: 1 mg/L (≈ 0.542 µM); MIC 50% [7]: 0.03 mg/L (≈ 0.0163 µM); MIC 90% [7]: 0.03 mg/L (≈ 0.0163 µM); MIC 50% [8]: 0.03 mg/L (≈ 0.0163 µM); MIC 90% [8]: 0.03 mg/L (≈ 0.0163 µM); MIC 50% [9]: 0.12 mg/L (≈ 0.0651 µM); MIC 90% [9]: 0.12 mg/L (≈ 0.0651 µM); MIC 50% [10]: 0.03 mg/L (≈ 0.0163 µM); MIC 90% [10]: 0.06 mg/L (≈ 0.0325 µM); MIC 50% [11]: 0.06 mg/L; MIC 90% [11]: 0.12 mg/L; MIC 50% [12]: 0.12 mg/L (≈ 0.0651 µM); MIC 50% [13]: 0.06 mg/L (≈ 0.0325 µM); MIC 90% [13]: 0.06 mg/L (≈ 0.0325 µM); MIC 50% [14]: 2 mg/L (≈ 1.08 µM); MIC 90% [14]: 2 mg/L (≈ 1.08 µM); fold higher MIC50/MIC90 against VanA-type E. faecalis compared with wildtype (susceptible) strains ([14]; VanA vs wildtype E. faecalis): 16 fold; concentration inhibiting all strains ([14]; VanA-type E. faecalis): ≤ 2 µg/mL
CNC(CC(C)C)C(=O)NC1C(=O)NC(CC(N)=O)C(=O)NC2C(=O)NC3C(=O)NC(C(=O)NC(C(=O)NCCOCCOCCN)c4cc(O)cc(O)c4-c4cc3ccc4O)C(O)c3ccc(c(Cl)c3)Oc3cc2cc(c3OC2OC(CO)C(O)C(O)C2OC2CC(C)(NCc3ccc(-c4ccc(Cl)cc4)cc3)C(O)C(C)O2)Oc2ccc(cc2Cl)C1O (stereo not shown) [Compound 9]	0.12 mg/L (≈ 0.0674 µM)	0.12 mg/L (≈ 0.0674 µM)	0.25 mg/L (≈ 0.14 µM)	0.25 mg/L (≈ 0.14 µM)	0.06 mg/L	0.06 mg/L	0.98 Log10 CFU/thigh	7.4 (Log10 CFU/thigh)/hr	0.5 Log10 CFU/thigh	17.2 (Log10 CFU/thigh)/hr	−0.01 Log10 CFU/thigh	24.6 (Log10 CFU/thigh)/hr	0.12 mg/L (≈ 0.0674 µM)	0.5 mg/L (≈ 0.281 µM)	0.12 mg/L (≈ 0.0674 µM)	0.5 mg/L (≈ 0.281 µM)	0.12 mg/L (≈ 0.0674 µM)	0.12 mg/L (≈ 0.0674 µM)	4 mg/L (≈ 2.25 µM)	1 mg/L (≈ 0.562 µM)	MIC 90% [6]: 2 mg/L (≈ 1.12 µM); MIC 50% [7]: 0.06 mg/L (≈ 0.0337 µM); MIC 90% [7]: 0.06 mg/L (≈ 0.0337 µM); MIC 50% [8]: 0.06 mg/L (≈ 0.0337 µM); MIC 90% [8]: 0.12 mg/L (≈ 0.0674 µM); MIC 50% [9]: 0.12 mg/L (≈ 0.0674 µM); MIC 90% [9]: 0.25 mg/L (≈ 0.14 µM); MIC 50% [10]: 0.06 mg/L (≈ 0.0337 µM); MIC 90% [10]: 0.12 mg/L (≈ 0.0674 µM); MIC 50% [11]: 0.06 mg/L; MIC 90% [11]: 0.12 mg/L; MIC 50% [12]: 0.25 mg/L (≈ 0.14 µM); MIC 50% [13]: 0.12 mg/L (≈ 0.0674 µM); MIC 90% [13]: 0.12 mg/L (≈ 0.0674 µM); MIC 50% [14]: 4 mg/L (≈ 2.25 µM); MIC 90% [14]: 8 mg/L (≈ 4.49 µM)
CNC(CC(C)C)C(=O)NC1C(=O)NC(CC(N)=O)C(=O)NC2C(=O)NC3C(=O)NC(C(=O)NC(C(=O)O)c4cc(O)c(CNCCOCCOCCN)c(O)c4-c4cc3ccc4O)C(O)c3ccc(c(Cl)c3)Oc3cc2cc(c3OC2OC(CO)C(O)C(O)C2OC2CC(C)(NCc3ccc(OCc4ccc(Cl)c(Cl)c4)cc3)C(O)C(C)O2)Oc2ccc(cc2Cl)C1O (stereo not shown) [Compound 28]	0.06 mg/L (≈ 0.032 µM)	0.06 mg/L (≈ 0.032 µM)	0.12 mg/L (≈ 0.064 µM)	0.12 mg/L (≈ 0.064 µM)	0.03 mg/L	0.06 mg/L	0.61 Log10 CFU/thigh	19.1 (Log10 CFU/thigh)/hr	0.75 Log10 CFU/thigh	17.3 (Log10 CFU/thigh)/hr	−0.02 Log10 CFU/thigh	38.2 (Log10 CFU/thigh)/hr	0.06 mg/L (≈ 0.032 µM)	0.12 mg/L (≈ 0.064 µM)	0.06 mg/L (≈ 0.032 µM)	0.25 mg/L (≈ 0.133 µM)	0.06 mg/L (≈ 0.032 µM)	0.06 mg/L (≈ 0.032 µM)	2 mg/L (≈ 1.07 µM)	0.5 mg/L (≈ 0.267 µM)	MIC 90% [6]: 1 mg/L (≈ 0.533 µM); MIC 50% [7]: 0.03 mg/L (≈ 0.016 µM); MIC 90% [7]: 0.03 mg/L (≈ 0.016 µM); MIC 50% [8]: 0.03 mg/L (≈ 0.016 µM); MIC 90% [8]: 0.06 mg/L (≈ 0.032 µM); MIC 50% [9]: 0.06 mg/L (≈ 0.032 µM); MIC 90% [9]: 0.12 mg/L (≈ 0.064 µM); MIC 50% [10]: 0.03 mg/L (≈ 0.016 µM); MIC 90% [10]: 0.06 mg/L (≈ 0.032 µM); fold more potent than teicoplanin and daptomycin ([11]; β-hemolytic streptococci): two- to four; fold more potent than vancomycin ([11]; β-hemolytic streptococci): four- to eight; MIC 50% [11]: 0.03 mg/L; MIC 90% [11]: 0.06 mg/L; MIC 50% [12]: 0.12 mg/L (≈ 0.064 µM); MIC 50% [13]: 0.06 mg/L (≈ 0.032 µM); MIC 90% [13]: 0.06 mg/L (≈ 0.032 µM); MIC 50% [14]: 2 mg/L (≈ 1.07 µM); MIC 90% [14]: 4 mg/L (≈ 2.13 µM)
